Laboratory results as given in PubChem BioAssay AID248 (DTP/NCI, 2004).
Toxic doses and inconclusive results are not listed. Numbered stars: 1 amine (or outer) side, 2 acyl side, 3 side chain; on linkers, the order of the positions; unused ones are H or OH. Bridge positions count the residues as written; N and C are the ends. Square brackets hold non-standard residues; d marks the D form. Peptide text beside a SMILES is read from it. I, II: the chains in the order shown. Actinocin(1to9) = Cc1c2oc3c(C)ccc(C(=O)[*:2])c3nc-2c(C(=O)[*:1])c(N)c1=O; X2 = CC(=O)OC1CC(C)N([*:1])C1C(=O)[*:2]; X1 = CC1CC(=O)C(C(=O)[*:2])N1[*:1]; NMeV = CN[CH](C(=O)O)C(C)C; NMeA = CN[CH](C)C(=O)O; Sar = CNCC(=O)O

Tested on: L1210 leukemia ip in BDF1 mice, survival T/C
Test: NCI In Vivo Anticancer Drug Screen. Data for tumor model L1210 Leukemia (intraperitoneal) in B6D2F1 (BDF1) mice
Details: endpoint: mean survival time, higher = longer survival
In short: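 Mice bearing the transplanted tumor received compound or vehicle. Survival of the treated group was divided by that of the vehicle-treated control group to give the ratio.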

[1] = dose: 100.0 mg/kg/injection, schedule: Q01DX009 (ip), vehicle: saline with Tween-80
[2] = dose: 100.0 mg/kg/injection, schedule: Q04DX002 (ip), vehicle: saline with Tween-80
[3] = dose: 200.0 mg/kg/injection, schedule: Q01DX009 (ip), vehicle: saline with Tween-80
[4] = dose: 200.0 mg/kg/injection, schedule: Q04DX002 (ip), vehicle: saline with Tween-80
[5] = dose: 400.0 mg/kg/injection, schedule: Q01DX009 (ip), vehicle: saline with Tween-80
[6] = dose: 400.0 mg/kg/injection, schedule: Q04DX002 (ip), vehicle: saline with Tween-80
[7] = dose: 100.0 mg/kg/injection, schedule: Q01DX009 (ip), vehicle: Klucel (hydroxypropylcellulose) (HPC)
[8] = dose: 100.0 mg/kg/injection, schedule: Q04DX003 (ip), vehicle: Klucel (hydroxypropylcellulose) (HPC)
[9] = dose: 200.0 mg/kg/injection, schedule: Q01DX009 (ip), vehicle: Klucel (hydroxypropylcellulose) (HPC)
[10] = dose: 200.0 mg/kg/injection, schedule: Q04DX003 (ip), vehicle: Klucel (hydroxypropylcellulose) (HPC)
[11] = dose: 400.0 mg/kg/injection, schedule: Q04DX003 (ip), vehicle: Klucel (hydroxypropylcellulose) (HPC)
[12] = dose: 100.0 mg/kg/injection, schedule: Q01DX001 (ip), vehicle: carboxymethylcellulose (CMC)
[13] = dose: 200.0 mg/kg/injection, schedule: Q01DX001 (ip), vehicle: carboxymethylcellulose (CMC)
[14] = dose: 400.0 mg/kg/injection, schedule: Q01DX001 (ip), vehicle: carboxymethylcellulose (CMC)
[15] = dose: 100.0 mg/kg/injection, schedule: Q04DX003 (ip), vehicle: saline with Tween-80
[16] = dose: 200.0 mg/kg/injection, schedule: Q04DX003 (ip), vehicle: saline with Tween-80
[17] = dose: 400.0 mg/kg/injection, schedule: Q04DX003 (ip), vehicle: saline with Tween-80
[18] = dose: 100.0 mg/kg/injection, schedule: Q01DX001 (ip), vehicle: saline
[19] = dose: 200.0 mg/kg/injection, schedule: Q01DX001 (ip), vehicle: saline
[20] = dose: 400.0 mg/kg/injection, schedule: Q01DX001 (ip), vehicle: saline

## Cc1ccc(C[N+](C)(C)C)cc1
dose: 9.38 mg/kg/injection, schedule: Q01DX001 (ip), vehicle: saline
  T/C: 103 % of control
dose: 18.75 mg/kg/injection, schedule: Q01DX001 (ip), vehicle: saline
  T/C: 100 % of control
dose: 37.5 mg/kg/injection, schedule: Q01DX001 (ip), vehicle: saline
  T/C: 100 % of control

## CCC1(c2ccccc2)C(=O)N(CCl)C(=O)N(CCl)C1=O
[1]
  T/C: 93 % of control
[2]
  T/C: 103 % of control
[3]
  T/C: 87 % of control
[4]
  T/C: 92 % of control
[5]
  T/C: 90 % of control
[6]
  T/C: 95 % of control

## CC(=O)OC1CC(C)N2C(=O)C(C(C)C)NC(=O)C(NC(=O)c3ccc(C)c4oc5c(C)c(=O)c(N)c(C(=O)NC6C(=O)NC(C(C)C)C(=O)N7C(C)CC(=O)C7C(=O)N(C)CC(=O)N(C)C(C)C(=O)OC6C)c-5nc34)C(C)OC(=O)C(C(C)C)N(C)C(=O)CN(C)C(=O)C12 (stereo not drawn) (I: TV[X1][Sar][NMeA] / II: TV[X2][Sar][NMeV]; ester I:1-I:C, II:1-II:C; linker I:N-II:N via Actinocin(1to9); configuration not given here)
dose: 0.1 mg/kg/injection, schedule: Q01DX009 (ip), vehicle: saline + alcohol
  T/C: 101 % of control
dose: 0.2 mg/kg/injection, schedule: Q01DX009 (ip), vehicle: saline + alcohol
  T/C: 105 % of control
dose: 0.3 mg/kg/injection, schedule: Q04DX003 (ip), vehicle: saline + alcohol
  T/C: 97 % of control
dose: 0.4 mg/kg/injection, schedule: Q01DX009 (ip), vehicle: saline + alcohol
  T/C: 110 % of control
dose: 0.6 mg/kg/injection, schedule: Q04DX003 (ip), vehicle: saline + alcohol
  T/C: 108 % of control
dose: 0.8 mg/kg/injection, schedule: Q01DX001 (ip), vehicle: saline + alcohol
  T/C: 97 % of control
dose: 0.8 mg/kg/injection, schedule: Q01DX009 (ip), vehicle: saline + alcohol
  T/C: 116 % of control
dose: 1.2 mg/kg/injection, schedule: Q04DX003 (ip), vehicle: saline + alcohol
  T/C: 110 % of control
dose: 1.6 mg/kg/injection, schedule: Q01DX001 (ip), vehicle: saline + alcohol
  T/C: 102 % of control
dose: 1.6 mg/kg/injection, schedule: Q01DX009 (ip), vehicle: saline + alcohol
  T/C: 122 % of control
dose: 2.4 mg/kg/injection, schedule: Q04DX003 (ip), vehicle: saline + alcohol
  T/C: 112 % of control
dose: 3.2 mg/kg/injection, schedule: Q01DX001 (ip), vehicle: saline + alcohol
  T/C: 106 % of control
dose: 4.8 mg/kg/injection, schedule: Q04DX003 (ip), vehicle: saline + alcohol
  T/C: 121 % of control
dose: 6.4 mg/kg/injection, schedule: Q01DX001 (ip), vehicle: saline + alcohol
  T/C: 122 % of control

## CC(=O)Nc1ccccc1C(=O)C(N)=O
dose: 50.0 mg/kg/injection, schedule: Q01DX009 (ip), vehicle: Klucel (hydroxypropylcellulose) (HPC)
  T/C: 100 % of control
[7]
  T/C: 94 % of control
[8]
  T/C: 96 % of control
[9]
  T/C: 96 % of control
[10]
  T/C: 95 % of control
[11]
  T/C: 98 % of control

## CC(C)N=C(NC(C)C)c1ccc(NC(=O)Nc2ccc(NC(=O)Nc3ccc(C(=NC(C)C)NC(C)C)cc3)cc2)cc1
dose: 1.88 mg/kg/injection, schedule: Q01DX Z (ip), vehicle: carboxymethylcellulose (CMC)
  T/C: 101 % of control
dose: 3.75 mg/kg/injection, schedule: Q01DX Z (ip), vehicle: carboxymethylcellulose (CMC)
  T/C: 102 % of control
dose: 7.5 mg/kg/injection, schedule: Q01DX Z (ip), vehicle: carboxymethylcellulose (CMC)
  T/C: 116 % of control
dose: 15.0 mg/kg/injection, schedule: Q01DX Z (ip), vehicle: carboxymethylcellulose (CMC)
  T/C: 102 % of control

## O=C1c2ccccc2-c2cc(Br)c(NC(=O)C(Cl)Cl)cc21
[12]
  T/C: 115 % of control
[13]
  T/C: 98 % of control
[14]
  T/C: 98 % of control

## CC(C)c1cc(O)ccc1O
dose: 100.0 mg/kg/injection, schedule: Q01DX001 (ip), vehicle: other
  T/C: 102 % of control
dose: 200.0 mg/kg/injection, schedule: Q01DX001 (ip), vehicle: other
  T/C: 94 % of control

## S=C(NC1CCCCC1)NC1CC2C=CC1C2 (stereo not drawn)
[2]
  T/C: 90 % of control
[4]
  T/C: 93 % of control
[6]
  T/C: 93 % of control

## Cc1ccc2c(c1)SN(CN1C(=O)c3ccccc3C1=O)N2
[7]
  T/C: 103 % of control
[8]
  T/C: 94 % of control
[9]
  T/C: 93 % of control
[10]
  T/C: 96 % of control
dose: 400.0 mg/kg/injection, schedule: Q01DX009 (ip), vehicle: Klucel (hydroxypropylcellulose) (HPC)
  T/C: 90 % of control
[11]
  T/C: 91 % of control

## CC(C)(C)C1(C)OCCCO1
[2]
  T/C: 101 % of control
[4]
  T/C: 108 % of control
[6]
  T/C: 87 % of control

## ClC(Cl)(Cl)CC(Br)C(Br)CBr (stereo not drawn)
dose: 100.0 mg/kg/injection, schedule: Q01DX001 (ip), vehicle: acetone
  T/C: 96 % of control
dose: 100.0 mg/kg/injection, schedule: Q01DX009 (ip), vehicle: acetone
  T/C: 95 % of control
dose: 100.0 mg/kg/injection, schedule: Q04DX003 (ip), vehicle: acetone
  T/C: 97 % of control
dose: 200.0 mg/kg/injection, schedule: Q01DX001 (ip), vehicle: acetone
  T/C: 98 % of control
dose: 200.0 mg/kg/injection, schedule: Q04DX003 (ip), vehicle: acetone
  T/C: 92 % of control
dose: 400.0 mg/kg/injection, schedule: Q01DX001 (ip), vehicle: acetone
  T/C: 98 % of control
dose: 400.0 mg/kg/injection, schedule: Q04DX003 (ip), vehicle: acetone
  T/C: 91 % of control

## CCOP(=S)(N1CC1(C)C)N1CC1(C)C (stereo not drawn)
dose: 12.5 mg/kg/injection, schedule: Q01DX015 (ip), vehicle: carboxymethylcellulose (CMC)
  T/C: 105 % of control
dose: 25.0 mg/kg/injection, schedule: Q01DX015 (ip), vehicle: carboxymethylcellulose (CMC)
  T/C: 105 % of control
dose: 50.0 mg/kg/injection, schedule: Q01DX015 (ip), vehicle: carboxymethylcellulose (CMC)
  T/C: 111 % of control
dose: 100.0 mg/kg/injection, schedule: Q01DX015 (ip), vehicle: carboxymethylcellulose (CMC)
  T/C: 152 % of control
dose: 200.0 mg/kg/injection, schedule: Q01DX015 (ip), vehicle: carboxymethylcellulose (CMC)
  T/C: 164 % of control

## CCOC(=O)CN=CC1CCC=CO1 (stereo not drawn)
[1]
  T/C: 97 % of control
[15]
  T/C: 93 % of control
[3]
  T/C: 103 % of control
[16]
  T/C: 95 % of control
[5]
  T/C: 108 % of control
[17]
  T/C: 93 % of control

## O=C(c1ccccc1)C(O)c1ccccc1 (stereo not drawn)
[1]
  T/C: 89 % of control
[3]
  T/C: 94 % of control
[5]
  T/C: 100 % of control

## Nc1nc(CNc2ccc(Cl)cc2)nc(Nc2ccc(Cl)cc2)n1
[15]
  T/C: 89 % of control
[16]
  T/C: 95 % of control
[17]
  T/C: 95 % of control

## COc1cc(NC(C)=O)c2ncccc2c1
[1]
  T/C: 99 % of control
[3]
  T/C: 106 % of control

## COC(=O)C1CCCN1C(=O)C1CSC(C)(C)N1C=O (stereo not drawn)
dose: 100.0 mg/kg/injection, schedule: Q04DX003 (ip), vehicle: saline
  T/C: 103 % of control
dose: 200.0 mg/kg/injection, schedule: Q04DX003 (ip), vehicle: saline
  T/C: 92 % of control
dose: 400.0 mg/kg/injection, schedule: Q04DX003 (ip), vehicle: saline
  T/C: 92 % of control

## Cc1ccccc1NC(=O)NCC(=O)O
[8]
  T/C: 104 % of control
[10]
  T/C: 98 % of control
[11]
  T/C: 93 % of control

## CC(=O)N1C(=O)NC(=O)C1(C)c1cccs1 (stereo not drawn)
[15]
  T/C: 104 % of control
[16]
  T/C: 98 % of control
[17]
  T/C: 105 % of control

## Nc1ccc2c(c1)/C(=N/O)c1cc(Cl)ccc1-2
[12]
  T/C: 109 % of control
[13]
  T/C: 103 % of control
[14]
  T/C: 100 % of control

## COc1cc2c3c(c1O)C1(C=CC(=O)C=C1)CC3N(C)CC2 (stereo not drawn)
[18]
  T/C: 92 % of control
[19]
  T/C: 94 % of control
[20]
  T/C: 90 % of control

## Oc1ccc(/C=N/Nc2nnc(N/N=C/c3ccc(O)c(O)c3)c3ccccc23)cc1O
dose: 50.0 mg/kg/injection, schedule: Q01DX001 (ip), vehicle: saline
  T/C: 97 % of control
[18]
  T/C: 92 % of control
[19]
  T/C: 97 % of control
[20]
  T/C: 97 % of control

## Cc1[nH]c(=S)[nH]c(=O)c1CCS
[18]
  T/C: 98 % of control
[19]
  T/C: 93 % of control
[20]
  T/C: 95 % of control
